Each block holds one molecule with its values, some of them ahead of it.
What was measured:
[1] = tested on: TNF/zVAD induced temperature loss in mice; experiment: TNF-driven systemic inflammatory response syndrome model using TNF plus zVAD (temperature loss); assay type: in vivo, mouse
RIP1 kinase [2] = target: T1, RIP1 kinase (Homo sapiens, UniProt Q13546); experiment: fluorescent polarization based binding assay; conditions: mean value, minimum of 2 experiments
T1 sequence (Q13546 1-375 limits assumed): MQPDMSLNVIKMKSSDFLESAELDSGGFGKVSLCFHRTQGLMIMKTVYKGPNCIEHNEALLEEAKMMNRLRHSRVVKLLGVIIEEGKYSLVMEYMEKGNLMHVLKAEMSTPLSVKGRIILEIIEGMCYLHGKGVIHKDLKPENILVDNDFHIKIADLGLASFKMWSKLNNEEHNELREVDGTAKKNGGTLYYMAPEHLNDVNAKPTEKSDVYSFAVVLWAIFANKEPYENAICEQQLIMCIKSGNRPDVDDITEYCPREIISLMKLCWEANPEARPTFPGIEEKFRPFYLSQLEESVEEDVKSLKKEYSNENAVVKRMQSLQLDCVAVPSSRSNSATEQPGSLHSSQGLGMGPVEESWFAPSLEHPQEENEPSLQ
Description: A fluorescent polarization based binding assay was used to asses the activity of the compounds of this invention, the details of which are disclosed in International Patent Appln. No. PCT/IB2014/059004, now, International Patent Appln. Pub.

[3] = tested on: TNF induced temperature loss in mice; experiment: TNF (alone) version of the systemic inflammatory response syndrome model (temperature loss); assay type: in vivo, mouse
Description: The model can be run in a long modality (using TNF alone i.v.) which results in the termination of the study in ˜8 hrs (under IACUC guidelines for temperature loss). […] All data are shown as means±standard error of the mean.

[4] = tested on: mouse L929 fibrosarcoma cells; experiment: necroptosis assay in L929 cells; assay type: cell-based; conditions: viability by cellular ATP (Cell Titer-Glo), read-out: mean pIC50, inhibition of necrosis in L929 cells (converted)
Experimental: The efficacy of RIP1 inhibitors can be tested […] in vitro using a human monocytic leukemia U937 or mouse L929 fibrosarcoma cells in a necroptosis assay. As determined using the method described in He, S. et al. 2009. Cell 137(6):1100-1111 and International Patent Appln. No. PCT/IB2014/059004, now, International Patent Appln. Pub.
Viability was measured by quantitating cellular levels of ATP using the Cell Titer-Glo kit. All data are means±standard deviation of the mean.

RIP1 kinase [5] = conditions: ischemic brain injury, retinal ischemia/reperfusion injury, Huntington's disease, renal ischemia reperfusion injury, cisplatin induced kidney injury, traumatic brain injury; cited from earlier work
[6] = background statement; cited from earlier work

IC50 (RIP1 kinase [2]): ~31.6 nM
SMILES: CC(=O)N1CCC(C(=O)N2N=CC[C@H]2c2cc(F)cc(F)c2)CC1 [Example 203, (S)-1-(4-(5-(3,5-difluorophenyl)-4,5-dihydro-1H-pyrazole-1-carbonyl)piperidin-1-yl)ethanone]
% Inhibition ([1]; 1 mg/kg PO, pre-dosed 15 minutes before i.v. mouse TNF and zVAD): 9%
% Inhibition ([1]; 10 mg/kg PO, pre-dosed 15 minutes before i.v. mouse TNF and zVAD): 46%
% Inhibition ([1]; 100 mg/kg PO, pre-dosed 15 minutes before i.v. mouse TNF and zVAD): 88%
% Inhibition ([3]; 1 mg/kg orally pre-dosed 15 minutes before i.v. mouse TNF (30 μg/mouse) alone): −14%
% Inhibition ([3]; 10 mg/kg orally pre-dosed 15 minutes before i.v. mouse TNF alone): 45%
% Inhibition ([3]; 100 mg/kg orally pre-dosed 15 minutes before i.v. mouse TNF alone): 86%

SMILES: CC(C)(C)C(=O)N1N=CC[C@H]1c1ccccc1 [Example 13, (S)-2,2-dimethyl-1-(5-phenyl-4,5-dihydro-1H-pyrazol-1-yl)propan-1-one]
IC50 [4]: ~5.01 nM
% Inhibition ([1]; 20 mg/kg IP, pre-dosed 15 minutes before i.v. mouse TNF (30 μg/mouse) and zVAD (0.4 mg/mouse)): 80%

SMILES: CC(C)(C)C(=O)N1N=CC[C@H]1c1ccccn1 [Example 48, (S)-2,2-dimethyl-1-(5-(pyridin-2-yl)-4,5-dihydro-1H-pyrazol-1-yl)-propan-1-one]
IC50 [4]: ~200 nM
% Inhibition ([1]; 0.5 mg/kg IP, pre-dosed 15 minutes before i.v. mouse TNF and zVAD): 17%
% Inhibition ([1]; 5 mg/kg IP, pre-dosed 15 minutes before i.v. mouse TNF and zVAD): 52%
% Inhibition ([1]; 50 mg/kg IP, pre-dosed 15 minutes before i.v. mouse TNF and zVAD): 91%

SMILES: CC(C)(C)C(=O)N1N=CC[C@H]1c1ccc(Cl)cc1 [Example 66, (S)-1-(5-(4-chlorophenyl)-4,5-dihydro-1H-pyrazol-1-yl)-2,2-dimethyl-propan-1-one]
IC50 [4]: ~0.00158 nM
% Inhibition ([1]; 0.1 mg/kg IP, pre-dosed 15 minutes before i.v. mouse TNF and zVAD): 52%

SMILES: CN1C(=O)C(Cc2c[nH]c3ccccc23)NC1=S (centres unmarked) [Necrostatin-1]
effectiveness in alleviating disease (RIP1 kinase [5]): effective
oral bioavailability [6]: poor

From patent US10590085B2, “Heterocyclic amides as kinase inhibitors” (GlaxoSmithKline Intellectual Property Development Limited, priority 2015, dated 2020)
